The source of these data is article PMC9115112, “A2B adenosine receptor antagonists rescue lymphocyte activity in adenosine-producing patient-derived cancer models” (Journal for Immunotherapy of Cancer, 2022).

Common to all, as to assay type: cell-based, human
Experiment [1] concerns healthy donor T cells (PBMCs) and NK cells. The experiment can be described thus: CFSE proliferation assay with exogenous adenosine. The settings on record: exogenous adenosine 0.1 mM, antagonist 12 µM; for Rescue of lymphocyte (T and NK cell) proliferation: 3 days (T) and 6 days (NK); for Rescue of NK cell proliferation: 6 days. Here is the method: Freshly isolated PBMCs and NK cells were stained with 5 µM FITC-conjugated carboxyfluorescein succinimidyl ester (CFSE, BioLegend) in phosphate-buffered saline (PBS) (Life Technologies) at room temperature for 5 min. CSFE stained cells were washed with flow cytometer buffer three times. CSFE-labeled healthy PBMCs and NK cells were cultured in 96-well plates with X-VIVO20% and 1% PS for 3 and 6 days, respectively. Healthy PBMCs were incubated with Human T-activator CD3/CD28 beads at 1:4 ratio (Thermo Fisher Scientific) and IL-2 (Novartis) at 100 IU/mL. Healthy donor NK cells were incubated with 1000 IU/mL IL-2 only. 2×10^5 PBMCs and 5×10^4 NK cells were counted for treatment with ADO (Sigma-Aldrich) and 12 μM of A2BAR antagonist at the same day.
Figure 3 Rescue of lymphocyte proliferation by of A2BAR antagonism. Relative proliferation of: (A) CD45RA- CD4 T cells, (B) CD45RA+ CD4 T cells, (C) CD45RA- CD8 T cells, (D) CD45RA+ CD8 T cells, and (E) NK cells, after incubation with exogenous adenosine 0.1 mM and A2BAR antagonist 12 µM for 3 (A–D) and 6 (E) days. (n=10 healthy donors) CD45RA expression differentiates naïve and effector T cells from central and effector memory T cells. Box plots with minimum, first quartile, median, third quartile, and maximum are presented. Unpaired and non-parametric statistical analysis—Mann-Whitney test was performed against untreated control with *p<0.05, **p<0.01, ***p<0.001, and ****p<0.0001. (F–J) Representative CFSE histogram on the corresponding lymphocyte subset. CFSE, carboxyfluorescein succinimidyl ester.

Experiment [2] deals with CD4 and CD8 T cells (healthy donor PBMCs). The experiment can be described thus: IFNy and perforin cytokine production assay, with CD69 expression (flow cytometry). As to conditions: antagonist 12 µM; for IFNy production in CD8 T cells: n=6 healthy donors. Here is the method: Similar experimental setup was performed as the extracellular ADO uptake assay. Cells were harvested after 2 days of CD3/CD28 bead stimulation before treatment with PMA/ionomycin (Sigma Aldrich) and golgi-inhibitors (BD biosciences). After 3 hours of subsequent incubation, intracellular staining was performed for IFNy and perforin (online supplemental table 1).
Figure 4 Rescue of lymphocyte proinflammatory cytokine production IFNy and perforin by A2BAR antagonism. (A,B) Inhibition of extracellular adenosine uptake via phosphorylated-AMP activated protein kinase (pAMPK) staining (n=7 healthy donors). Production of proinflammatory cytokines—(C,D) IFNy and (E) perforin in CD4 (n=5 healthy donors) and CD8 (n=6 healthy donors) T cells. Expression of CD69 adhesion molecule in (F). CD4 (n=7 healthy donors) and (G) CD8 (n=4 healthy donors) T cells. A2BAR antagonist 12 µM was added. Outlier is presented as diamond shape and defined by Tukey’s rule, which is not included in statistical analysis. Box plots with minimum, first quartile, median, third quartile, and maximum are presented. Normalized fold change is based on percent values compared with untreated controls. Unpaired and non-parametric statistical analysis—Mann-Whitney test was performed against untreated control with *p<0.05, **p<0.01, ***p<0.001, and ****p<0.0001.

The subject of experiment [3] is breast cancer patient-derived spheroid cultures. Put plainly: Cell viability assay (Cell-Titer Glo) on breast cancer patient-derived spheroid cultures. As to conditions: 4 days exposure. Here is the method:
From breast cancer single cell suspension, 3×10^3 cells were seeded and cultured in an ultra-low attachment 384-well plate (Corning) with DMEM-F12 media (Thermo Fisher Scientific) containing 20% FBS and 1% PS. Treatment with A2BAR antagonist at various concentrations are stated in the Results section. After 4 days, Cell-Titer Glo reagent (Promega) was used to measure cell viability in accordance to the manufacturer’s instruction. EnSpire Multilabel Reader (PerkinElmer) was used to read the luminescence.
(§1) Figure 2 Antitumor effect of A2BAR antagonists on breast cancer patient-derived spheroid cultures. (A) Relative cell viability to untreated antagonist control spheroid cultures (n=3, mean±SD) measured by Cell-Titer Glo assay. (B) Representative real time imaging of spheroid cultures over 6 days under 4X objective, with untreated (first column) or added 12 µM concentration respective of A2BAR antagonists indicated. Red mask demarcates area with cells surrounding the spheroid. Green line indicates estimated diameter of spheroid body. (C) Relative area of the representative spheroid growth (as shown in B) normalized to day 1. Statistical analysis—2-way (A) and 1-way (C) ANOVA with Dunnett’s multiple comparisons to untreated antagonist control was performed with *p<0.05, **p<0.01, ***p<0.001, and ****p<0.0001.

Experiment [4] has the same test system. The experiment can be described thus: Real-time imaging (IncuCyte) of breast cancer patient-derived spheroid growth. As to conditions: middle antagonist concentration (12 µM in figure 2), 6 days real-time imaging. Here is the method: Brightfield and phase contrast images under 4X objective were acquired every 6 hours on IncuCyte S3 system (Essen BioScience). For breast cancer patient-derived spheroid culture, 1×10^4 cells per well were seeded with A2BAR antagonist at 12 µM treatment for 6 days real time imaging. For spheroid infiltration, after the addition of CSFE-labeled autologous expanded TILs and treatment with A2BAR antagonist at 12 µM, green fluorescence images were acquired for 3 days. All spheroid invasion analysis was performed using top hat segmentation with IncuCyte software.
as §1

In the case of `CC1=C(C(=O)OC(C)C)C(c2ccco2)n2c(nc3ccccc32)N1` (centres unmarked) [ISAM-140, isopropyl 4-(furan-2-yl)−2-methyl-1,4-dihydrobenzo[4 5] imidazo[1,2 a]pyrimidine-3-carboxylate], in experiment [1], the “Rescue of lymphocyte (T and NK cell) proliferation” value was “improved immune cell proliferation”. Besides, in experiment [1] (3 days, n=10 healthy donors), the “Rescue of proliferation of CD45RA+ (naïve and effector) CD8 T cells” value is listed as “rescued the proliferation”; the “Rescue of proliferation of CD45RA+ CD4 T cells” value is listed as “rescued the proliferation”; the “Rescue of proliferation of CD45RA- CD4 T cells (central and effector memory)” value is given as “rescued the proliferation”. In experiment [1] (n=10 healthy donors), the “Rescue of NK cell proliferation” value is recorded as “rescued the proliferation”. Also, in experiment [2] (exogenous adenosine, n=5 healthy donors), the “IFNy production in CD4 T cells” value is “upregulated IFNy production”. Also, the “IFNy production in CD8 T cells” value in experiment [2] (exogenous adenosine) is listed as “upregulated IFNy production”. The “Relative cell viability of breast cancer spheroids vs untreated control” value (from here on “Relative cell viability”) in experiment [3] (n=3) was “significantly reduced”. In addition, the “Spheroid growth over time (relative area) vs untreated control” value in experiment [4] was “significantly affected the spheroid growth over time”.
`CC1=C(C(=O)OC(C)C)C(c2ccoc2)n2c(nc3cc(Cl)ccc32)N1` (centres unmarked) [ISAM-M89A]: the “Rescue of lymphocyte (T and NK cell) proliferation” value in experiment [1] is reported as “did not restore the proliferation”. For the same compound, the “CD69 expression in CD8 T cells” value in experiment [2] (n=4 healthy donors) is recorded as “positive effect”. Besides, the “CD69 expression in CD4 T cells” value in experiment [2] (n=7 healthy donors) is recorded as “positive effect”. Besides, the “Relative cell viability” value in experiment [3] (n=3) is on record as “more pronounced effect”; in experiment [3] (n=3, listed as ISAM–M89A) it was “significantly reduced”. For the same compound, the “Spheroid growth over time (relative area) vs untreated control” value in experiment [4] was “significantly affected the spheroid growth over time”.
For the compound `CC1=C(C(=O)OC(C)C)C(c2ccco2)n2c(nc3ccccc32)N1Cc1ccccc1F` (centres unmarked) [ISAM-R56A], the “Rescue of proliferation of T cell subsets” value in experiment [1] (3 days, n=10 healthy donors) is on record as “did not restore the proliferation”. In addition, the “Rescue of NK cell proliferation” value in experiment [1] (n=10 healthy donors) is reported as “significantly rescued”. Further, in experiment [2] (exogenous adenosine), the “IFNy production by T cells on adenosine suppression (subset not given)” value is on record as “significantly improved”, the “Perforin production by CD8 T cells on adenosine suppression” value is given as “significantly improved” and the “IFNy production in CD8 T cells” value was “significantly rescued”. Besides, in experiment [2] (exogenous adenosine, listed as ISAM–R56A), the “Perforin production by CD8 T cells on adenosine suppression” value was “significantly rescued”. The “Relative cell viability” value in experiment [3] (n=3) is recorded as “significantly reduced”. In experiment [4], the “Spheroid growth over time (relative area) vs untreated control” value is listed as “significantly affected the spheroid growth over time”.
